What all share (assay type): in vivo
In test [1] the test system is Orchid Thrips (dichromothrips corbetti). The experiment in a line: Orchid thrips floral-immersion test. To be noted: 72 h, read-out: mortality in comparison with untreated controls. How it is done: B.6 Orchid Thrips (dichromothrips corbetti)
Dichromothrips corbetti adults used for bioassay are obtained from a colony maintained continuously under laboratory conditions. For testing purposes, the test compound is diluted in a 1:1 mixture of acetone:water (vol:vol), plus 0.01% vol/vol Alkamuls® EL 620 surfactant.
Thrips potency of each compound is evaluated by using a floral-immersion technique. Plastic petri dishes are used as test arenas. All petals of individual, intact orchid flowers are dipped into treatment solution and allowed to dry. Treated flowers are placed into individual petri dishes along with about 20 adult thrips. The petri dishes are then covered with lids. All test arenas are held under continuous light and a temperature of about 28° C. for duration of the assay. After 3 days, the numbers of live thrips are counted on each flower, and along inner walls of each petri dish. The percent mortality is recorded 72 hours after treatment.

For test [2], the system named is vetch aphid (Megoura viciae). The experiment in a line: Vetch aphid contact/systemic test on broad bean leaf disks. To be noted: foliar, 120 h, read-out: mortality in comparison with untreated controls. How it is done: B.2 Vetch Aphid (Megoura viciae)
For evaluating control of vetch aphid (Megoura viciae) through contact or systemic means the test unit consisted of 24-well-microtiter plates containing broad bean leaf disks.
The compounds were formulated using a solution containing 75% v/v water and 25% v/v DMSO. Different concentrations of formulated compounds were sprayed onto the leaf disks at 2.5 μl, using a custom built micro atomizer, at two replications.
After application, the leaf disks were air-dried and 5-8 adult aphids were placed on the leaf disks inside the microtiter plate wells. The aphids were then allowed to suck on the treated leaf disks and were incubated at about 23±1° C. and about 50±5% relative humidity for 5 days. Aphid mortality and fecundity was then visually assessed.

Test [3] concerns Rice Brown Plant Hopper (Nilaparvata lugens). The test is described as follows: Rice brown plant hopper spray test on rice seedlings. As to conditions: 72 h, read-out: mortality in comparison with untreated controls. How it is done: B.8 Rice Brown Plant Hopper (Nilaparvata lugens)
Rice seedlings are cleaned and washed 24 hours before spraying. The active compounds is formulated in 50:50 acetone:water (vol:vol) and 0.1% vol/vol surfactant (EL 620) was added. Potted rice seedlings are sprayed with 5 ml test solution, air dried, placed in cages and inoculated with 10 adults. Treated rice plants are kept at about 28-29° C. and relative humidity of about 50-60%. Percent mortality is recorded after 72 hours.

Test [4] concerns Rice Green Leafhopper (Nephotettix virescens). The experiment in a line: Rice green leafhopper spray test on rice seedlings. As to conditions: 72 h, read-out: mortality in comparison with untreated controls. The method, then:
B.7 Rice Green Leafhopper (Nephotettix virescens)
Rice seedlings are cleaned and washed 24 hours before spraying. The active compounds are formulated in 50:50 acetone:water (vol:vol), and 0.1% vol/vol surfactant (EL 620) is added. Potted rice seedlings are sprayed with 5 ml test solution, air dried, placed in cages and inoculated with 10 adults. Treated rice plants are kept at about 28-29° C. and relative humidity of about 50-60%. Percent mortality is recorded after 72 hours.

The subject of test [5] is Silverleaf Whitefly (bemisia argentifolii). The experiment in a line: Silverleaf whitefly spray test on cotton plants. As to conditions: 72 h, read-out: mortality in comparison with untreated controls. An excerpt:
B.5 Silverleaf Whitefly (bemisia argentifolii)
The active compounds are formulated in cyclohexanone as a 10,000 ppm solution supplied in tubes. The tubes are inserted into an automated electrostatic sprayer equipped with an atomizing nozzle and they serve as stock solutions for which lower dilutions are made in 50% acetone:50% water (v/v). A nonionic surfactant (Kinetic®) is included in the solution at a volume of 0.01% (v/v).
Cotton plants at the cotyledon stage (one plant per pot) are sprayed by an automated electrostatic plant sprayer equipped with an atomizing spray nozzle. The plants are dried in the sprayer fume hood and then removed from the sprayer. Each pot is placed into a plastic cup and about 10 to 12 whitefly adults (approximately 3-5 days old) are introduced. The insects are collected using an aspirator and a nontoxic Tygon® tubing connected to a barrier pipette tip. The tip, containing the collected insects, is then gently inserted into the soil containing the treated plant, allowing insects to crawl out of the tip to reach the foliage for feeding. Cups are covered with a reusable screened lid. […] Mortality is assessed 3 days after treatment, compared to untreated control plants.

Test [6] relates to Cotton aphid (Aphis gossypii). The test is described as follows: Cotton aphid spray test on potted plants. As to conditions: 72 h, read-out: mortality in comparison with untreated controls. How it is done: B.3 Cotton aphid (Aphis gossypii)
(§1) The active compound is dissolved at the desired concentration in a mixture of 1:1 (vol:vol) distilled water:acetone. Surfactant (Alkamuls® EL 620) is added at a rate of 0.1% (vol/vol). The test solution is prepared at the day of use.
Potted cowpea plants were colonized with approximately 50-100 aphids of various stages by manually transferring a leaf tissue cut from infested plant 24 hours before application. Plants were sprayed after the pest population has been recorded. Treated plants are maintained on light carts at about 28° C. Percent mortality was assessed after 72 hours.

In test [7] the test system is Green Soldier Stink Bug (Nezara viridula). The experiment in a line: Green soldier stink bug spray test on soybean pods. As to conditions: 120 h, sprayed soybean pods, 3rd instar, 5 days, read-out: mortality in comparison with untreated controls. The method, then:
B.10 Green Soldier Stink Bug (Nezara viridula)
The active compound is dissolved at the desired concentration in a mixture of 1:1 (vol:vol) distilled water:aceteone. Surfactant (Kinetic HV) is added at a rate of 0.01% (vol/vol). The test solution is prepared at the day of use.
Soybean pods were placed in microwavable plastic cups lined with moist filter paper and inoculated with ten 3rd instar N. viridula. Using a hand atomizer, approximately 2 ml solution is sprayed into each cup. Treated cups were kept at about 28-29° C. and relative humidity of about 50-60%. Percent mortality was recorded after 5 days.

Test [8] has as its system Cowpea Aphid (Aphis craccivora). The test is described as follows: Cowpea aphid spray test on potted cowpea plants. As to conditions: 72 h, read-out: mortality in comparison with untreated controls. How it is done: B.4 Cowpea Aphid (Aphis craccivora)
as §1
Potted cowpea plants are colonized with approximately 50-100 aphids of various stages by manually transferring a leaf tissue cut from infested plant 24 hours before application. Plants are sprayed after the pest population has been recorded. Treated plants are maintained on light carts at about 28° C. Percent mortality is assessed after 72 hours.

In test [9] the test system is green peach aphid (Myzus persicae). The test is described as follows: Green peach aphid systemic test, artificial diet in 96-well microtiter plates. As to conditions: 72 h, read-out: mortality in comparison with untreated controls. The source says:
B.1 Green Peach Aphid (Myzus persicae)
For evaluating control of green peach aphid (Myzus persicae) through systemic means, the test unit consists of 96-well-microtiter plates containing liquid artificial diet under an artificial membrane.
The compounds are formulated using a solution containing 75% v/v water and 25% v/v DMSO. Different concentrations of formulated compounds are pipetted into the aphid diet, using a custom built pipetter, at two replications.
After application, 5-8 adult aphids are placed on the artificial membrane inside the microtiter plate wells. The aphids are then allowed to suck on the treated aphid diet and incubated at about 23+1° C. and about 50+5% relative humidity for 3 days. Aphid mortality and fecundity is then visually assessed.

Test [10] deals with Diamond Back Moth (Plutella xylostella). The test is described as follows: Diamond back moth cabbage leaf dip test. To be noted: foliar, 72 h, read-out: mortality in comparison with untreated controls. How it is done:
B.9 Diamond Back Moth (Plutella xylostella)
The active compound is dissolved at the desired concentration in a mixture of 1:1 (vol:vol) distilled water:aceteone. Surfactant (Alkamuls® EL 620) is added at a rate of 0.1% (vol/vol). The test solution is prepared at the day of use.
Leaves of cabbage were dipped in test solution and air-dried. Treated leaves were placed in petri dish eslined with moist filter paper and inoculated with ten 3rd instar larvae. Mortality was recorded 72 hours after treatment. Feeding damages were also recorded using a scale of 0-100%.

This passage reports mortality results from US10206397B2, “N-acylimino heterocyclic compounds” (BASF SE, priority 2013, dated 2019).

For `N#CCC(=O)/N=c1\ccccn1Cc1ccc(Cl)nc1` [I.A-1], the mortality at 500 ppm was no less than 75% in test [1]; no less than 75% in [3]; no less than 75% in test [4]; no less than 75% in [5]; greater than 75% in test [6]; greater than 75% in test [7]. Moreover, the mortality at 500 ppm in test [8] was no less than 75%. The mortality at 2500 ppm in test [2] and in test [9] was no less than 75% in each case.
For the compound `N#CC1(C(=O)/N=c2\ccccn2Cc2ccc(Cl)nc2)CC1` [I.B-1], the mortality at 500 ppm in test [1] is no less than 75%; in test [3], no less than 75%; in test [4] it was no less than 75%; in test [10], greater than 75%; in test [8], no less than 75%. The mortality at 2500 ppm in test [2] and in test [9] was no less than 75% throughout.
